Calls of active or inactive are those of the source. No stated cut-off is given here; in the data, actives have a measured IC50 and inactives only a lower limit.
target: Envelope glycoprotein gp160 (Human immunodeficiency virus 1, UniProt Q6QLK5); assay: inhibitors of HIV fusion peptide binding, primary screen, biochemical, uHTS, fluorescence dequenching (AID 1986)
Sequence (Q6QLK5 whole entry, the tested form may be a part): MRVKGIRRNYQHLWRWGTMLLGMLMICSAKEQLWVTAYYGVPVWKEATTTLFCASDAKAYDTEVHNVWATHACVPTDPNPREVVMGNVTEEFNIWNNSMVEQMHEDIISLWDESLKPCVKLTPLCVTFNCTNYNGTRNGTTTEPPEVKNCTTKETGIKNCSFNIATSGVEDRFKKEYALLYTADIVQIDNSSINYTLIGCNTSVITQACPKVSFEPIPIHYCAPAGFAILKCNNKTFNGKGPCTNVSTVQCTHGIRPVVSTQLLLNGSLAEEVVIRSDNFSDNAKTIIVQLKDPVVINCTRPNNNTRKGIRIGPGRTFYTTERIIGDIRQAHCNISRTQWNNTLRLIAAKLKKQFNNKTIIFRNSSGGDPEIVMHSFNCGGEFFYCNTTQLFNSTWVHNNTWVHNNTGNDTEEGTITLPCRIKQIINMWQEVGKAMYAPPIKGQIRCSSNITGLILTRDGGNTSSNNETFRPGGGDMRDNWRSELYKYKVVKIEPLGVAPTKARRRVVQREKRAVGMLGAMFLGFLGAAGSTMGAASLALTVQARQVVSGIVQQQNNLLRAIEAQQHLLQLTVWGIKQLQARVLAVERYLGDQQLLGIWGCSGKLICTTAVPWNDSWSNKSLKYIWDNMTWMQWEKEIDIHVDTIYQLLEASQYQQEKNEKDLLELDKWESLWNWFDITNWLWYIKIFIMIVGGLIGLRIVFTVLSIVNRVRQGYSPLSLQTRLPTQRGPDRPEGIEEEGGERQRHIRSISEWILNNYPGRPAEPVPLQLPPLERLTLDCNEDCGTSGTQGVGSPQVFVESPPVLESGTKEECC

SMILES	IC50
Cc1oc2c(cc(NS(=O)(=O)c3ccc(C(C)C)cc3)c3ccccc32)c1C(=O)O	14.8 µM (active)
N#Cc1c(SCC(=O)Nc2nc3ccc(Br)cc3s2)sc2c(O)cc(=O)[nH]c12	11 µM (active)
O=C(CCN1C(=O)/C(=C/c2cccs2)SC1=S)Nc1ccc(C(=O)O)c(O)c1	11.6 µM (active)
COc1cccc(OCCOc2ccc(/C=C3\C(=N)N4N=C(S(C)(=O)=O)SC4=NC3=O)cc2OC)c1	43.8 µM (active)
O=C(O)c1cc(-c2ccc(/C=N/Nc3ccc(Cl)cc3)o2)ccc1Cl	24.1 µM (active)
